Results as given in patent US11459325B2, “Heterocyclic compound” (Takeda Pharmaceutical Company Limited, priority 2018, dated 2022).

Test system: GBA mutant human fibroblasts GM008760
Assay: Glucosylceramide lowering assay
Format: cell-based
Conditions: Homo sapiens, Fibroblast, 96 h; 10 μM test compound, 4 days culture; GlcCer (C16:0)/Cer (C16:0) molar ratio of test compound group relative to DMSO control group x100; smaller value = glucosylceramide lowering
Outline: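 Fibroblasts with mutant GBA were treated with 10 μM compound for 4 days. Lipids extracted in ethanol/isopropanol with deuterated internal standard; GlcCer (C16:0) and Cer (C16:0) quantified by RapidFire-MS/MS. Value is GlcCer/Cer ratio relative to DMSO control ×100.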

| SMILES | activity at 10 µM |
| --- | --- |
| Cc1cn(C)c(=O)c2c(C(=O)N3CC4CC4(c4ccc5ccccc5c4)C3)cn(C)c12 (stereo not drawn) [Example 261, 1,5,7-trimethyl-3-((1-(2-naphthyl)-3-azabicyclo[3.1.0]hex-3-yl)carbonyl)-1,5-dihydro-4H-pyrrolo[3,2-c]pyridin-4-one] | 65% |
| Cc1cn(C)c(=O)c2c(C(=O)N3CC4CC4(c4cccc(OC(F)(F)F)c4)C3)cn(C)c12 (stereo not drawn) [Example 131, 1,5,7-trimethyl-3-((1-(3-(trifluoromethoxy)phenyl)-3-azabicyclo[3.1.0]hex-3-yl)carbonyl)-1,5-dihydro-4H-pyrrolo[3,2-c]pyridin-4-one] | 63% |
| Cc1cn(C)c(=O)c2c(C(=O)N3CC4CC4(c4cccc(Cl)c4)C3)cn(C)c12 (stereo not drawn) [Example 118, 3-((1-(3-chlorophenyl)-3-azabicyclo[3.1.0]hex-3-yl)carbonyl)-1,5,7-trimethyl-1,5-dihydro-4H-pyrrolo[3,2-c]pyridin-4-one] | 59% |
| Cc1cn(C)c(=O)c2c(C(=O)NCc3noc(-c4ccc(Cl)cc4)n3)cnn12 [Example 286, N-((5-(4-chlorophenyl)-1,2,4-oxadiazol-3-yl)methyl)-5,7-dimethyl-4-oxo-4,5-dihydropyrazolo[1,5-a]pyrazine-3-carboxamide] | 67% |
| Cc1cn(C)c(=O)c2c(C(=O)NC3CCC(c4ccccc4)CC3)cn(C)c12 (stereo not drawn) [Example 21, 1,5,7-trimethyl-4-oxo-N-(4-phenylcyclohexyl)-4,5-dihydro-1H-pyrrolo[3,2-c]pyridine-3-carboxamide] | 67% |
| CCCCO[C@H]1CC[C@H](NC(=O)c2cn(C)c3c(C)cn(C)c(=O)c23)CC1 [Example 2, N-(trans-4-butoxycyclohexyl)-1,5,7-trimethyl-4-oxo-4,5-dihydro-1H-pyrrolo[3,2-c]pyridine-3-carboxamide] | 87% |
| COc1cc(NC(=O)c2cn(C)c3c(C)cn(C)c(=O)c23)ccn1 [Example 36, N-(2-methoxypyridin-4-yl)-1,5,7-trimethyl-4-oxo-4,5-dihydro-1H-pyrrolo[3,2-c] pyridine-3-carboxamide] | 65% |
| COc1ccnc(NC(=O)c2cn(C)c3c(C)cn(C)c(=O)c23)c1 [Example 37, N-(4-methoxypyridin-2-yl)-1,5,7-trimethyl-4-oxo-4,5-dihydro-1H-pyrrolo[3,2-c] pyridine-3-carboxamide] | 68% |
| COc1ccc(C23CC2CN(C(=O)c2cn(C)c4c(C)cn(C)c(=O)c24)C3)cc1 (stereo not drawn) [Example 127, 3-((1-(4-methoxyphenyl)-3-azabicyclo[3.1.0]hex-3-yl)carbonyl)-1,5,7-trimethyl-1,5-dihydro-4H-pyrrolo[3,2-c]pyridin-4-one] | 65% |
